Data published in patent US10548829B2, “Oral care compositions and methods of use” (priority 2016, dated 2020).

Experiments:
HaCaT cells = test: Scratch assay, cell migration/proliferation "wound healing"; format: cell-based, human; details: 0.1 mM in 1% DMSO complete media
Procedure: Cell Culture: Spontaneously immortalized human keratinocyte line, HaCaT cells (AddexBio, San Diego, Calif., cat # T0020001) were cultured in 25 cm^2 vented, Falcon canted tissue culture flasks (VWR, Radnor, Pa., cat #353108) using complete DMEM media (Life Technologies, Grand Island, N.Y., cat #11965-092) supplemented with 10% characterized Hyclone FBS (VWR, Radnor, Pa., cat #1677-014) and 1× Penicillin—Streptomycin (Life Technologies, Grand Island, N.Y., cat #15140122). The cultures were incubated at 37° C. and 5% CO2 until the cells reached around 70-80% confluence. […]
Assay sample preparation: Samples were prepared in a final concentration of 1% DMSO in complete media. […] Two different batches of product 5 were tested at 0.15 mM, the average % Growth Relative to day 0 (d0) was determined and presented in FIG. 20. […]
Quantifying cell migration/wound healing: To explore the effects of various actives on cell migration/wound healing, the size of the freshly generated wound (the gap size) was determined following treatment using an inverted microscope (Olympus 1X71, Olympus Scientific Solutions Americas, Waltham, Mass.) and Cellsens Dimension 1.11 (Olympus Corporation, Waltham, Mass.) software and monitored until the gap closed completely. […] The mean of each arm was determined for each day of the study until the wound heal and no gap existed. […]

[1] = system: EpiGingival™ tissue models; test: Tissue zinc uptake analysis; format: in vitro ADME; details: 2 minute treatment
Procedure: All samples were prepared in a final concentration of 1% DMSO in 7% of Propylene Glycol (PG). […] For the vehicle only control, 1% DMSO in 7% PG was used. All samples were equilibrated to 37° C. prior to testing.
Zinc uptake studies were performed using EpiGingival™ tissue models from MatTek Corporation. Briefly, EpiGingival™ tissue inserts were equilibrated overnight in 1 ml of the EpiGingival™ assay media (supplied by MatTek Corporation). For testing, working with one insert at a time, the insert was removed and placed inside a clean 6 well plate. Then, 1 ml of the test sample was carefully removed and introduced to the inside of the insert and allowed to incubate for 2 minutes. Next, the samples were removed using an aspirator and the tissue rinsed with 1 ml of warm water (37° C.). This was repeated for 2 more times for a total of 3 washes. At the end of the last wash making sure to remove as much of the water as possible, the tissue was disengaged from the insert with the tip of a sterile forceps, and transferred into a clean 15 ml Falcon tube. The process was repeated until all the tissues were treated. Experiments were performed three times with each test sample assayed in duplicate.
Digestion of Tissues: Briefly, 0.5 ml of a mixture of 7:3 HCl/HNO3 was introduced into a 15 ml Falcon tube containing one of the treated tissue samples and allowed to digest overnight. The following day, 4.5 ml of water was added to each of the digested tissue samples, thoroughly mixed and centrifuged at 4,000 RPM for 10 minutes at room temperature. The clear supernatant (4.5 ml) was transferred into a clean, labeled Falcon tube and submitted for analytical analysis of Zinc.
A one way ANOVA was done to determine the p value. A plot of the average zinc (ppm) against the various treatments was generated (see FIG. 19).

[2] = 1 mM complex or combination, 0.33 mM Zinc acetate

| SMILES | wound healing, % growth relative to d0 (in words) (HaCaT cells) | Zn (ppm) Preparation 1 N1 ([1]; 1 mM complex or combination (0.67 mM + 0.33 mM), 0.33 mM Zinc acetate) [ppm] | Zn (ppm) Preparation 1 N2 [1, 2] [ppm] | Zn (ppm) Preparation 2 N1 [1, 2] [ppm] | Zn (ppm) Preparation 2 N2 [1, 2] [ppm] | Zn (ppm) Preparation 3 N1 [1, 2] [ppm] | Zn (ppm) Preparation 3 N2 [1, 2] [ppm] | Zn Ave (ppm) ([1]; average of three preparations in duplicate) |
| --- | --- | --- | --- | --- | --- | --- | --- | --- |
| C[C@@H]1O[C@@H](O[C@H]2[C@H](Oc3cc(O)c4c(c3)O[C@H](c3ccc(O)cc3)CC4=O)O[C@H](CO)[C@@H](O)[C@@H]2O)[C@H](O)[C@H](O)[C@H]1O [Naringin] | not significantly different from that of Zinc acetate |  |  |  |  |  |  |  |
| CC(=O)[O-].CC(=O)[O-].[Zn+2] [Zinc Acetate alone, Zinc (II) Acetate] |  | 0.96 | 0.92 | 0.82 | 0.81 | 0.84 | 0.85 | 0.87 |
